Experimental data: patent publication US9670227B2, “Thienopyrimidine derivatives, a process for their preparation and pharmaceutical compositions containing them” (LES LABORATOIRES SERVIER, priority 2013, dated 2017)
Where two headings read alike, the source gives them in different places.

Tests used:
[1] = target: Mcl-1 protein (UniProtKB primary accession number: Q07820) (Homo sapiens, UniProt Q07820); test: Inhibition of Mcl-1 by fluorescence polarisation, Method 1; assay type: binding; conditions: for percentage fluorescence polarisation inhibition, Mcl-1 FP: partial inhibitors, @ 10 uM test compound; for IC50: read-out: IC50 (M) Mcl-1 FP
Sequence of Mcl-1 protein (Q07820 whole entry): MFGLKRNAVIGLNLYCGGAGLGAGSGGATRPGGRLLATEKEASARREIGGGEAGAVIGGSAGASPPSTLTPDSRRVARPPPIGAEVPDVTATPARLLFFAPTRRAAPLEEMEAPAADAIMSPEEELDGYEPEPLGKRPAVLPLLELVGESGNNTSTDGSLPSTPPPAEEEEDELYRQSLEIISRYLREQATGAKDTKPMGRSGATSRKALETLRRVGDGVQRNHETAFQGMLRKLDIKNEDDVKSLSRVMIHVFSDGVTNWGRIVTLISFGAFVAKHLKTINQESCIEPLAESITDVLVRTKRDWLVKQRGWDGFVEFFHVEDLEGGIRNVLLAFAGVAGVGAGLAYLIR
Outline: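 Fluorescence polarisation competition with an 11-point compound dilution series (final DMSO 5%). Mcl-1 protein at 5 nM and fluorescein-labelled ligand at 1 nM (final) in 10 mM HEPES, 150 mM NaCl, 0.05% Tween 20, pH 7.4.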

[2] = system: AMO-1 multiple myeloma cells; test: Quantification of the cleaved form of PARP in vivo (MSD ELISA, tumour lysates); parameters: species or system mice (SCID strain); conditions: activation factor: cleaved PARP in treated mice / control mice, AMO-1 xenograft in SCID mice, intraveinous or oral routes
Experimental: The ability of the compounds of the invention to induce apoptosis, by measuring cleaved PARP levels, is evaluated in a xenograft model of AMO-1 multiple myeloma cells. 1.10^7 AMO-1 cells are grafted sub-cutaneously into immunosuppressed mice (SCID strain). 12 to 14 days after the graft, the animals are treated by intraveinous or oral routes with the various compounds. After treatment, the tumour masses are recovered and lysed, and the cleaved form of PARP is quantified in the tumour lysates.
The quantification is carried out using the “Meso Scale Discovery (MSD) ELISA platform” test, which specifically assays the cleaved form of PARP. It is expressed in the form of an activation factor corresponding to the ratio between the quantity of cleaved PARP in the treated mice divided by the quantity of cleaved PARP in the control mice.

[3] = system: H929 multiple myeloma tumour line; test: In vitro cytotoxicity, Microculture Tetrazolium Assay; assay type: cell-based; conditions: Homo sapiens, NCI-H929, 48 h, H929 cells, 48 hours exposure, read-out: IC50 (μM) MTT H929
Experimental: The cytotoxicity studies were carried out on the H929 multiple myeloma tumour line.
The cells are distributed onto microplates and exposed to the test compounds for 48 hours.

[4] = fluorescence polarisation, Method 1, or Method 2
[5] = fluorescence polarisation test, Method 1, or Method 2 where the value is underlined (underlining not visible)

IC50 [1, 4]	IC50 [1, 5]	SMILES	PARP fold [2]	IC50 ([3]; cell viability)	further results
		CCOC(=O)[C@@H](Cc1ccccc1OCc1ccnn1C(C)C)Oc1ncnc2sc(-c3ccc(F)o3)c(-c3ccc(OCCN4CCN(C)CC4)c(Cl)c3C)c12 [Example 623, ethyl (2R)-2-{[(5Sa)-5-{3-chloro-2-methyl-4-[2-(4-methylpiperazin-1-yl)ethoxy]phenyl}-6-(5-fluorofuran-2-yl)thieno[2,3-d]pyrimidin-4-yl]oxy}-3-(2-{[1-(propan-2-yl)-1H-pyrazol-5-yl]methoxy}phenyl)propanoate]	441.5 fold		percentage fluorescence polarisation inhibition, Mcl-1 FP [1]: 67.8% @ 10 uM
		CCOC(=O)[C@@H](Cc1ccccc1OCc1ccnc(OCC(F)(F)F)n1)Oc1ncnc2sc(-c3ccc(F)cc3)c(-c3ccc(OCCN4CCN(C)CC4)c(Cl)c3C)c12 [Example 638, ethyl (2R)-2-{[(5Sa)-5-{3-chloro-2-methyl-4-[2-(4-methylpiperazin-1-yl)ethoxy]phenyl}-6-(4-fluorophenyl)thieno[2,3-d]pyrimidin-4-yl]oxy}-3-(2-{[2-(2,2,2-trifluoroethoxy)pyrimidin-4-yl]methoxy}phenyl)propanoate]	136.7 fold		percentage fluorescence polarisation inhibition, Mcl-1 FP [1]: 34.5% @ 10 uM
		CCOC(=O)[C@@H](Cc1ccccc1OCc1ccnc(-c2ccccc2OC)n1)Oc1ncnc2sc(-c3ccc(F)cc3)c(-c3ccc(OCCN4CCN(C)CC4)c(Cl)c3C)c12 [Example 639, ethyl (2R)-2-{[(5Sa)-5-{3-chloro-2-methyl-4-[2-(4-methylpiperazin-1-yl)ethoxy]phenyl}-6-(4-fluorophenyl)thieno[2,3-d]pyrimidin-4-yl]oxy}-3-(2-{[2-(2-methoxyphenyl)pyrimidin-4-yl]methoxy}phenyl)propanoate]	195.7 fold		percentage fluorescence polarisation inhibition, Mcl-1 FP [1]: 66.25% @ 10 uM
6.89e-07 M		CCOC(=O)C(Cc1ccccc1OCc1ccnc(-c2ccccc2OC)n1)Oc1ncnc2sc(-c3ccc(F)cc3)c(-c3ccc(OCCN(C)C)c(Cl)c3C)c12 [Example 756, Ethyl (2R)-2-{[(5Sa)-5-{3-chloro-4-[2-(dimethylamino)ethoxy]-2-methylphenyl}-6-(4-fluorophenyl)thieno[2,3-d]pyrimidin-4-yl]oxy}-3-(2-{[2-(2-methoxyphenyl)pyrimidin-4-yl]methoxy}phenyl)propanoate]	117 fold		
1.86e-09 M		Cc1c(-c2c(-c3ccc(OCc4ccn(C)n4)cc3)sc3ncnc(OC(Cc4ccccc4OCc4ccnn4CC(F)(F)F)C(=O)O)c23)ccc(OCCN2CCN(C)CC2)c1Cl [Example 779, (2R)-2-[((5Sa)-5-{3-chloro-2-methyl-4-[2-(4-methylpiperazin-1-yl)ethoxy]phenyl}-6-{4-[(1-methyl-1H-pyrazol-3-yl)methoxy]phenyl}thieno[2,3-d]pyrimidin-4-yl)oxy]-3-(2-{[1-(2,2,2-trifluoroethyl)-1H-pyrazol-5-yl]methoxy}phenyl)propanoic acid]			IC50 ([3]; MTT): 0.056 µM
1.68e-09 M		COc1ccccc1-c1nccc(COc2ccccc2CC(Oc2ncnc3sc(C#CCOc4ccccc4)c(-c4ccc(OCCN5CCN(C)CC5)c(Cl)c4C)c23)C(=O)O)n1 [Example 782, (2R)-2-{[(5Sa)-5-{3-chloro-2-methyl-4-[2-(4-methylpiperazin-1-yl)ethoxy]phenyl}-6-(3-phenoxyprop-1-yn-1-yl)thieno[2,3-d]pyrimidin-4-yl]oxy}-3-(2-{[2-(2-methoxyphenyl)pyrimidin-4-yl]methoxy}phenyl)propanoic acid]			IC50 ([3]; MTT): 0.057 µM
1.06e-09 M		COc1ccccc1-c1nccc(COc2ccccc2CC(Oc2ncnc3sc(C#CCCCc4ccccc4)c(-c4ccc(OCCN5CCN(C)CC5)c(Cl)c4C)c23)C(=O)O)n1 [Example 783, (2R)-2-{[(5Sa)-5-{3-chloro-2-methyl-4-[2-(4-methylpiperazin-1-yl)ethoxy]phenyl}-6-(5-phenylpent-1-yn-1-yl)thieno[2,3-d]pyrimidin-4-yl]oxy}-3-(2-{[2-(2-methoxyphenyl)pyrimidin-4-yl]methoxy}phenyl)propanoic acid]			IC50 ([3]; MTT): 0.037 µM
9.48e-10 M		COCC#Cc1sc2ncnc(OC(Cc3ccccc3OCc3ccnc(-c4ccccc4OC)n3)C(=O)O)c2c1-c1ccc(OCCN2CCN(C)CC2)c(Cl)c1C [Example 784, (2R)-2-{[(5Sa)-5-{3-chloro-2-methyl-4-[2-(4-methylpiperazin-1-yl)ethoxy]phenyl}-6-(3-methoxyprop-1-yn-1-yl)thieno[2,3-d]pyrimidin-4-yl]oxy}-3-(2-{[2-(2-methoxyphenyl)pyrimidin-4-yl]methoxy}phenyl)propanoic acid]			IC50 ([3]; MTT): 0.023 µM
1.91e-06 M		CCOC(=O)C(Cc1ccccc1OCc1ccnc(-c2ccccc2F)n1)Oc1ncnc2sc(-c3ccc(F)cc3)c(-c3ccc(OCCN4CCN(CC)CC4)c(Cl)c3C)c12 [Example 790, ethyl (2R)-2-{[(5Sa)-5-{3-chloro-4-[2-(4-ethylpiperazin-1-yl)ethoxy]-2-methylphenyl}-6-(4-fluorophenyl)thieno[2,3-d]pyrimidin-4-yl]oxy}-3-(2-{[2-(2-fluorophenyl)pyrimidin-4-yl]methoxy}phenyl)propanoate]	282.9 fold		
	5.35e-06 M	CCOC(=O)C(Cc1ccccc1OCc1ccnn1C(C)(C)C)Oc1ncnc2sc(-c3ccc(F)cc3)c(-c3ccc(OCCN(C)C)c(Cl)c3C)c12 [Example 794, ethyl (2R)-3-{2-[(1-tert-butyl-1H-pyrazol-5-yl)methoxy]phenyl}-2-{[(5Sa)-5-{3-chloro-4-[2-(dimethylamino)ethoxy]-2-methylphenyl}-6-(4-fluorophenyl)thieno[2,3-d]pyrimidin-4-yl]oxy}propanoate]	125.6 fold		
	6.91e-07 M	COc1ccccc1-c1nccc(COc2ccccc2CC(Oc2ncnc3sc(-c4ccc(F)cc4)c(-c4ccc(OCCN5CCN(C)CC5)c(Cl)c4C)c23)C(=O)Oc2ccc3c(c2)CCC3)n1 [Example 809, 2,3-dihydro-1H-inden-5-yl (2R)-2-{[(5Sa)-5-{3-chloro-2-methyl-4-[2-(4-methylpiperazin-1-yl)ethoxy]phenyl}-6-(4-fluorophenyl)thieno[2,3-d]pyrimidin-4-yl]oxy}-3-(2-{[2-(2-methoxyphenyl)pyrimidin-4-yl]methoxy}phenyl)propanoate]		0.047 µM	
	5.47e-09 M	COc1ccccc1-c1nccc(COc2ccccc2CC(Oc2ncnc3sc(-c4ccc(F)cc4)c(-c4ccc(OCCN5CCN(C)CC5)c(Cl)c4C)c23)C(=O)OCCN(C)C)n1 [Example 813, 2-(dimethylamino)ethyl (2R)-2-{[(5Sa)-5-{3-chloro-2-methyl-4-[2-(4-methylpiperazin-1-yl)ethoxy]phenyl}-6-(4-fluorophenyl)thieno[2,3-d]pyrimidin-4-yl]oxy}-3-(2-{[2-(2-methoxyphenyl)pyrimidin-4-yl]methoxy}phenyl)propanoate]		0.011 µM	
	3.15e-09 M	Cc1c(-c2c(-c3ccc(F)cc3)sc3ncnc(OC(Cc4ccccc4OCc4ccnc(-c5ccccc5CO)n4)C(=O)O)c23)ccc(OCCN(C)C)c1Cl [Example 832, (2R)-2-{[(5Sa)-5-{3-chloro-4-[2-(dimethylamino)ethoxy]-2-methylphenyl}-6-(4-fluorophenyl)thieno[2,3-d]pyrimidin-4-yl]oxy}-3-[2-({2-[2-(hydroxymethyl)phenyl]pyrimidin-4-yl}methoxy)phenyl]propanoic acid]		0.004 µM	
	2.9e-09 M	COc1ccccc1-c1nccc(COc2ccccc2CC(Oc2ncnc3sc(-c4ccccc4F)c(-c4ccc(OCCN5CCN(C)CC5)c(Cl)c4C)c23)C(=O)O)n1 [Example 835, (2R)-2-{[(5Sa)-5-{3-chloro-2-methyl-4-[2-(4-methylpiperazin-1-yl)ethoxy]phenyl}-6-(2-fluorophenyl)thieno[2,3-d]pyrimidin-4-yl]oxy}-3-(2-{[2-(2-methoxyphenyl)pyrimidin-4-yl]methoxy}phenyl)propanoic acid]		0.002 µM	
	2.8e-09 M	COc1ccccc1-c1nccc(COc2ccccc2CC(Oc2ncnc3sc(-c4cccc(F)c4)c(-c4ccc(OCCN5CCN(C)CC5)c(Cl)c4C)c23)C(=O)O)n1 [Example 836, (2R)-2-{[(5Sa)-5-{3-chloro-2-methyl-4-[2-(4-methylpiperazin-1-yl)ethoxy]phenyl}-6-(3-fluorophenyl)thieno[2,3-d]pyrimidin-4-yl]oxy}-3-(2-{[2-(2-methoxyphenyl)pyrimidin-4-yl]methoxy}phenyl)propanoic acid]		0.002 µM	
	2.35e-09 M	COc1ccccc1-c1nccc(COc2ccccc2C[C@@H](Oc2ncnc3sc(-c4ccc(F)cc4)c(-c4ccc(OCCN5CCN(C)CC5)c(Cl)c4OC)c23)C(=O)O)n1 [Example 837, (2R)-2-{[5-{3-chloro-2-methoxy-4-[2-(4-methylpiperazin-1-yl)ethoxy]phenyl}-6-(4-fluorophenyl)thieno[2,3-d]pyrimidin-4-yl]oxy}-3-(2-{[2-(2-methoxyphenyl)pyrimidin-4-yl]methoxy}phenyl)propanoic acid]		0.003 µM	
